Literature values, collected in paper PMC12399788, “A Comparison of the Molecular Pharmacological Properties of Current Short, Long, and Ultra‐Long‐Acting β2‐Agonists Used for Asthma and COPD” (Pharmacology Research & Perspectives, 2025).

Tests used:
guinea pig tracheal = system: guinea pig tracheal; set-up: method as in PMID 20402514; conditions: guinea pig tracheal studies
conscious guinea pigs = conditions: equipotent nebulized agents
human lung (mast cells) = conditions: histamine release from human lung (mast cells)

Row | SMILES | duration (guinea pig tracheal) | bronchodilation duration (conscious guinea pigs) | duration of action (human trachea) [min] | duration of action relative to salbutamol (human trachea) [times longer] | time by which response was lost (human lung (mast cells)) [h] | response remaining (% maximal) (human lung (mast cells); at 20 h) [%] | bronchodilation at 6 h (conscious guinea pigs; 6 h)
1 | COc1ccc(CC(C)NCC(O)c2ccc(O)c(NC=O)c2)cc1 (centres unmarked) [Formoterol, formoterol] | 1.2 h | 3 h | 34 | 4.5 |  |  | 
2 | CCc1cc2c(cc1CC)CC(NC[C@H](O)c1ccc(O)c3[nH]c(=O)ccc13)C2 [Indacaterol, indacaterol] | over 12 h |  |  |  |  |  | 
3 | CC(C)(C)NCC(O)c1ccc(O)c(CO)c1 (centres unmarked) [Salbutamol, salbutamol] | 0.9 h | less than 1.5 h | 7.6 |  | ≤ 4 |  | 
4 | OCc1cc(C(O)CNCCCCCCOCCCCc2ccccc2)ccc1O (centres unmarked) [Salmeterol, salmeterol] |  |  |  |  |  | 75 | no reduction
